What was measured:
human recombinant PFKFB4 = human recombinant PFKFB4 (Homo sapiens, UniProt Q16877); assay: fructose-6-phosphate kinase activity of recombinant PFKFB4 (in vitro kinase assay); format: biochemical
Description: (§1) The fructose-6-phosphate kinase activity of human recombinant PFKFB4 in the presence of DMSO±indicated 5MPN concentrations was assayed as previously described. The activity of 5MPN against 97 kinases was examined using a commercially available active-site dependent competition binding assay core service (KINOMEscanEDGE) that quantifies the capacity of test agents to compete with an immobilized, active-site directed ligand using a DNA-tagged kinase and immobilized ligand and compound. For example, enzyme inhibition was studied using an ADP-Glo assay. The effect of MPN-2 on the activity of recombinant human PFKFB4 enzyme was examined in an ADP-Glo assay (Promega), which measures ADP formed from a kinase reaction. ADP is converted into ATP, which is converted into light by a luciferase. PFKFB4 protein was exposed to MPN-2 at indicated concentrations in the presence of ATP and fructose-6-phosphate and following manufacturer's instructions, ADP-Glo and kinase detections reagents were added. The data are shown as the decrease in luminescence caused by MPN-2 relative to DMSO.

[1] = system: PFKFB4-/- lung fibroblasts; assay: cell counts of tamoxifen-inducible PFKFB4-/- fibroblasts; format: cell-based, mouse; conditions: 4HT-induced deletion, 10 μM 5MPN, 24 hours
Excerpt: (§2) H460, H1299, H441, H522 and A549 non-small cell lung cancer (NSCLC), MDA-MB-231 (breast), LNCaP (prostatic) and HCT116 (colon) adenocarcinoma and Lewis lung carcinoma (LLC) cell lines were obtained from ATCC and used within 6 months of acquisition. PFKFB4^−/− ear pinna fibroblasts isolated from TamCre/loxP/PFKFB4^−/− mice were immortalized as described previously (Chesney J et al. Fructose-2,6-bisphosphate synthesis by 6-phosphofructo-2-kinase/fructose-2,6-bisphosphatase 4 (PFKFB4) is required for the glycolytic response to hypoxia and tumor growth. Oncotarget 2014 Aug. 30; 5(16):6670-86). Normal bronchial epithelial cells (NHBE) were obtained from Lonza and NHBE cells expressing telomerase, SV40 large T antigen and activated Ras (hT/LT/Ras) were a gift from Dr. B. J. Rollins, Dana Farber Cancer Institute. All cell lines were tested and found negative for mycoplasma (PCR Mycoplasma Detection Kit, ABM). Cell lines were grown in DMEM (A549, LNCaP, MDA-MB-231, LLC and PFKFB4^−/−), RPMI 1640 (H460, H1299, H441, H522) and McCoy's 5A media (HCT116) (all from Invitrogen) containing 10% fetal calf serum (Hyclone). […]
(§3) Cells were incubated in 20% trypan blue (Sigma) for 5 minutes. Cells excluding trypan blue were counted using a standard hemocytometer (Hausser Scientific) to determine total numbers of viable cells. Data are expressed as mean±SD of three experiments.

PFKFB3 = PFKFB3 (Homo sapiens, UniProt Q16875); assay: PFKFB3 kinase activity; format: biochemical; conditions: 10 μM
PFKFB3, sequence (Q16875 whole entry, species assumed): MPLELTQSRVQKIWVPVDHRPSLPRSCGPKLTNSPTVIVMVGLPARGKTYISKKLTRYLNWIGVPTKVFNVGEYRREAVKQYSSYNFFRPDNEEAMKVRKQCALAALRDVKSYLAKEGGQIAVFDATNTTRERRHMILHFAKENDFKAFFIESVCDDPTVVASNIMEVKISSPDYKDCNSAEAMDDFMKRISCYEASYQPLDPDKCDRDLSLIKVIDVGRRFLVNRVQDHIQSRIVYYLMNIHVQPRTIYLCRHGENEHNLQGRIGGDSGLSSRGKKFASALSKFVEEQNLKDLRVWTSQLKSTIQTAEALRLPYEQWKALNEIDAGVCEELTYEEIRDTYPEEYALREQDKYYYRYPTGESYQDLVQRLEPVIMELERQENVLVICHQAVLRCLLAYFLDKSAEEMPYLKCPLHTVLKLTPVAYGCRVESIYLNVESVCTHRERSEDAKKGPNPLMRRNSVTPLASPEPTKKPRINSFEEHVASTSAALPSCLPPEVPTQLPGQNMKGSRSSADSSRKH

A549 = assay: proliferation, viable cell count; format: cell-based, human; conditions: A549, over 48 hours
Excerpt: (§4) H460, H1299, H441, H522 and A549 non-small cell lung cancer (NSCLC), MDA-MB-231 (breast), LNCaP (prostatic) and HCT116 (colon) adenocarcinoma and Lewis lung carcinoma (LLC) cell lines were obtained from ATCC and used within 6 months of acquisition. PFKFB4^−/− ear pinna fibroblasts isolated from TamCre/loxP/PFKFB4^−/− mice were immortalized as described previously (Chesney J et al. Fructose-2,6-bisphosphate synthesis by 6-phosphofructo-2-kinase/fructose-2,6-bisphosphatase 4 (PFKFB4) is required for the glycolytic response to hypoxia and tumor growth. Oncotarget 2014 Aug. 30; 5(16):6670-86). Normal bronchial epithelial cells (NHBE) were obtained from Lonza and NHBE cells expressing telomerase, SV40 large T antigen and activated Ras (hT/LT/Ras) were a gift from Dr. B. J. Rollins, Dana Farber Cancer Institute. All cell lines were tested and found negative for mycoplasma (PCR Mycoplasma Detection Kit, ABM). Cell lines were grown in DMEM (A549, LNCaP, MDA-MB-231, LLC and PFKFB4^−/−), RPMI 1640 (H460, H1299, H441, H522) and McCoy's 5A media (HCT116) (all from Invitrogen) containing 10% fetal calf serum (Hyclone). NHBE and hT/LT/Ras cells were grown in BEGM containing SingleQuots (Lonza). All lines were cultured at 37° C. in 5% CO2. In certain experiments, 4-hydroxytamoxifen (4HT, Sigma-Aldrich) was added to PFKFB4^−/− fibroblasts at indicated concentrations.
as §3

MDA-MB-231 = assay: proliferation, viable cell count; format: cell-based, human; conditions: MDA-MB-231, over 48 hours
Excerpt: as §4, §3

H441 = assay: proliferation, viable cell count; format: cell-based, human; conditions: H441, over 48 hours
Excerpt: as §4, §3

HCT116 = assay: proliferation, viable cell count; format: cell-based, human; conditions: HCT116, over 48 hours
Excerpt: as §4, §3

H1299 = assay: proliferation, viable cell count; format: cell-based, human; conditions: H1299, over 48 hours
Excerpt: as §4, §3

LNCaP = assay: proliferation, viable cell count; format: cell-based, human; conditions: over 48 hours
Excerpt: as §4, §3

H522 = assay: proliferation, viable cell count; format: cell-based, human; conditions: H522, over 48 hours
Excerpt: as §4, §3

[2] = system: normal human bronchial epithelial (NHBE) cells; assay: cell growth of normal cells, live cell count; format: cell-based; conditions: live cells at 48 hours
Excerpt: as §2, §3

[3] = system: panel of 97 protein kinases; assay: KINOMEscan active-site dependent competition binding assay; conditions: 10 μM; data not shown
Description: as §1

[4] = pharmacokinetic profile after IV and oral administration; format: in vivo; conditions: C57BL/6 mice
Description: The pharmacokinetic profile was determined in female C57BL/6 mice following IV and oral administration of 5MPN. Using only female mice lowered the animal numbers required for meaningful results without issues of potential gender differences in exposure. Eight time points (n=3/time point) were used to determine PK parameters calculated using WinNonLin v5.0. Plasma samples were extracted using acetonitrile and analyzed by LC/MS-MS using a PhenomexSynergi Polar-RP 4 micron 50×2.0 mm column eluted with a biphasic mobile phase (0.5% formic acid in acetonitrile and water).

hT/LT/Ras cells = assay: cell growth of transformed cells, live cell count; format: cell-based, human; conditions: live cells at 48 hours
Excerpt: as §2, §3

cancer cells [5] = assay: intracellular ATP measurement; format: cell-based; conditions: increasing concentrations
Description: Method: To measure ATP, cells were washed (while still adherent) with cold PBS, lysed with Passive Lysis Buffer (Molecular Probes, Invitrogen) added directly to the plates, and immediately harvested by scraping. The lysates were flash frozen (to −80° C.) and thawed (to 37° C.) once to accomplish complete lysis and then centrifuged to clear the lysates. Intracellular ATP levels were determined using a bioluminescence assay (Molecular Probes), utilizing luciferase and its substrate, D-luciferin and ATP values were calculated using an ATP standard curve. The ATP concentration was normalized to protein concentration that was estimated using the BCA assay.

cancer cells [6] = assay: F26BP measurement in cells; format: cell-based; conditions: increasing concentrations
Description: Method: In order to measure F26BP, cells were exposed to increasing concentrations of Formula (VIII) and were harvested, washed with PBS, lysed in NaOH/Tris acetate by heating at 80° C. and lysates neutralized to pH 7.2. F26BP content was measured using a coupled enzyme reaction following a modified method of Van Schaftingen (VAN SCHAFTINGEN et al, “A kinetic study of pyrophosphate:fructose-6-phosphate phosphotransferase from potato tubers. Application to a microassay of fructose 2,6-bisphosphate” Eur J Biochem. (1982) Vol. 129, No. 1, pp. 191-195), which is herein incorporated by reference in its entirety. The F26BP concentration was normalized to total cellular protein measured by the bicinchoninic acid assay (BCA, Thermo Scientific).

human recombinant PFKFB4, sequence (Q16877 whole entry): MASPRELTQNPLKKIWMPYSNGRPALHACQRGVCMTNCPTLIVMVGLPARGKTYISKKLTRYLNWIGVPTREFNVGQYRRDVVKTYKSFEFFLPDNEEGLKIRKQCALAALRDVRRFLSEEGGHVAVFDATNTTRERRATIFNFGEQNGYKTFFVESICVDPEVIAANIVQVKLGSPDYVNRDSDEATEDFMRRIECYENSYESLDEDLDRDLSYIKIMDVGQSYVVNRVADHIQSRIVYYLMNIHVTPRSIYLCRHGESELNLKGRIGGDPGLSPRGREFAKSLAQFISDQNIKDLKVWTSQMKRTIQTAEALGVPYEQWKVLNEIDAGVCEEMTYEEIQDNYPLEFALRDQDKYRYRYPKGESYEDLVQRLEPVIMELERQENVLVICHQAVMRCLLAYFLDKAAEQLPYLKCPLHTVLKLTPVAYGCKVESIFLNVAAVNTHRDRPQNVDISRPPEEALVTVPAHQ

SMILES | type of inhibition (Lineweaver-Burk analyses) (human recombinant PFKFB4; as a function of F6P concentration, FIG. 1D) | PFKFB4 activity (human recombinant PFKFB4; kinase activity of recombinant PFKFB4, FIG. 1C) | effect of genomic deletion of Pfkfb4 on anti-proliferative effect [1] | inhibition of kinase activity (PFKFB3) | growth (A549) | growth (MDA-MB-231) | growth (H441) | growth (HCT116) | growth (H1299) | growth (LNCaP) | growth (H522) | cell growth of normal cells [2] | inhibition of a panel of 97 protein kinases [3] | oral bioavailability [4] | concentrations reached by intravenous and oral administration ([4]; IV and oral, administered daily) | cell growth of transformed cells (hT/LT/Ras cells) | production of ATP (cancer cells [5]) | F26BP (normalized to cellular protein) (cancer cells [6])
COc1cccc2c(NCCCCCO[N+](=O)[O-])ccnc12 [5MPN, 5-[(8-methoxyquinolin-4-yl)amino]pentyl nitrate] | competitive inhibitor of the F6P binding site | inhibited PFKFB4 activity | sensitized | did not inhibit | dose-dependent reduction in growth | dose-dependent reduction in growth | dose-dependent reduction in growth | dose-dependent reduction in growth | dose-dependent reduction in growth | dose-dependent reduction in growth | dose-dependent reduction in growth | virtually unaffected | not inhibited | has oral bioavailability | adequate to achieve potentially therapeutic concentrations | suppressed | – | –
COc1cccc2c(NCCCCCNC(=O)C(F)(F)F)ccnc12 [Formula (VIII), 2,2,2-trifluoro-N-(5-((8-methoxyquinolin-4-yl)amino)pentyl)acetamide] | – | – | – | – | – | – | – | – | – | – | – | – | – | – | – | – | dose-dependent decrease | dose-dependent decrease

— patent US10774046B2, “Inhibitors for the treatment of cancer and related methods” (UNIVERSITY OF LOUISVILLE RESEARCH FOUNDATION, INC., priority 2017, dated 2020)
